Results on 9 molecules are retold here after patent US10696677B2 (Research Triangle Institute, priority 2016, dated 2020).

Series [1] deals with T1, hCB1 (Homo sapiens, UniProt P21554). In words: radioligand displacement binding at CB1 (membranes of CHO-K1 cells over-expressing receptor). To be noted: for CB2 Ki/CB1 Ki selectivity ratio: CB1 versus CB2. A general note: In a radioligand displacement assay an active substance lowers the binding of a labelled ligand.
Description: (§1) All compounds were characterized by H^1 NMR and evaluated using a calcium mobilization assay. […] Further characterization of select compounds was performed using radioligand displacement of [3H]1 and equilibrium dissociation constant (Ki) values were determined.
Series [2] concerns MDCK. Nature of the series: MDCK BBB Assay. It counts as in vitro ADME. To be noted: for % Permeable: MDCK BBB assay; for MDCK BBB Assay (Basolateral/Apical Peak Area Ratio) Mean: MDCK cells.
The target of series [3] is T1, hCB1. Nature of the series: functional fluorescent CB1 activated Gαq16-coupled intracellular calcium mobilization assay in CHO-K1 cells. It counts as cell-based. Also on record: expressed in transfected cells; host or cells: CHO-K1 (membranes). To be noted: average of 3-6 measurements, read-out: Apparent antagonist dissociation constant (Ke) at hCB1. In general terms: Calcium assays in cells follow changes in intracellular calcium, usually with a dye or a luminescent sensor.

For series [4], the target named is hCB2 (Homo sapiens, UniProt P34972). Nature of the series: radioligand displacement binding at CB2 ([3H]CP55940, membranes of CHO-K1 cells over-expressing receptor).
Description: as §1
The test system of series [5] is alcoholic steatosis, AS. The settings on record: past studies; cited from earlier work.
Series [6] is described as follows: in vivo brain penetration, brain and plasma levels by LC/MS/MS. To be noted: mouse, po, mice, cassette dosed orally at 2.5 mg/kg, read-out: Brain:Plasma Ratio. Here is the method: Select compounds were chosen for in vivo studies to determine penetration into the CNS. Compounds were cassette dosed orally at 2.5 mg/kg in mice. Brain and plasma samples were collected at 1, 2, 4, and 24 hours post dose and samples were analyzed by LC/MS/MS (Table 5, below). Unperfused brains were used which contain a blood volume of approximately 4%.

The subject of series [7] is mouse model of AS. Nature of the series: alcohol induced liver steatosis mouse model, Oil Red O staining of liver sections. The series is classed as in vivo, C57BL/6J mice. The text has this: FIG. 1A-1B. […] (FIG. 1A) Representative liver sections from mice receiving control diet without ethanol+vehicle (left panel), ethanol containing diet+vehicle (center panel) or ethanol containing diet+98 (right panel).
Pathogen-free female C57BL/6J mice, aged 9 weeks (Jackson Laboratories, Bar Harbor, Me., USA) weighing 19-21 g were used in this study. C57BL/6 mice were offered solid PicoLab Certified Rodent LabDiet® 5053 (pellet) ad libitum during the acclimation period following which, all animals were switched to a Lieber-DeCarli 82′ Control (Catalog No: F1259SP, BioServ®) diet which was nutritionally complete. […] Digitized images of mouse liver sections (10 μm in thickness) were assessed semi-quantitatively for degree of steatosis using Image J software (NIH, Bethesda, Md.). Briefly, a 5 in^2 digital grid (Image J Command Menu: Plugin-Analyze-Grid) was placed on each image wherein lipid droplets in 6 grids per image were counted and the average number of oil droplets was recorded for each animal (n=6, per group). […] Statistical significance was determined through ANOVA between treatment and control groups using Graph Pad Prism 7.0 (GraphPad Software Inc., La Jolla, Calif., USA) at a confidence level of *p<0.001.
In contrast, the ethanol containing diet caused significant accumulation of lipid droplets (center panel in FIG. 1A). […] The data are quantified in FIG. 1B.

[8] abbreviates: read-out: Binding affinity (Ki) at hCB1, radioligand displacement, CHO-K1 membranes, average of 3-6 measurements.

“Also recorded” adds a separate entry of the source. Read-outs that look alike come from different tables or passages of the source.

For orientation: melting point means the temperature of the solid-liquid transition. The term Ki denotes a dissociation constant, usually derived from enzyme kinetics or from competition with a known ligand.

T1 sequence (P21554 whole entry): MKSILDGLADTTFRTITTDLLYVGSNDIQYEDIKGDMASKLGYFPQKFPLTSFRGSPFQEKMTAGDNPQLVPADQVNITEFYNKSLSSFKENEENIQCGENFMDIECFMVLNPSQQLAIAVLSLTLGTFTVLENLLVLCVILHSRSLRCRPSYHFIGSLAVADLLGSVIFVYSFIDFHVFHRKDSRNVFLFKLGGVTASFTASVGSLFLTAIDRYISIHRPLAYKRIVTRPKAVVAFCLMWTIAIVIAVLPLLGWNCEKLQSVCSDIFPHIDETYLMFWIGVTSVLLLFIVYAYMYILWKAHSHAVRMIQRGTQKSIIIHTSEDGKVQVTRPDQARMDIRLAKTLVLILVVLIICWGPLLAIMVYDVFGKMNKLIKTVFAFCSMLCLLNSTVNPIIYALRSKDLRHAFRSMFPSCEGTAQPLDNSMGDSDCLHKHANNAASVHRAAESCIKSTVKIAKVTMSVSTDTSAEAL
hCB2, sequence (P34972 whole entry): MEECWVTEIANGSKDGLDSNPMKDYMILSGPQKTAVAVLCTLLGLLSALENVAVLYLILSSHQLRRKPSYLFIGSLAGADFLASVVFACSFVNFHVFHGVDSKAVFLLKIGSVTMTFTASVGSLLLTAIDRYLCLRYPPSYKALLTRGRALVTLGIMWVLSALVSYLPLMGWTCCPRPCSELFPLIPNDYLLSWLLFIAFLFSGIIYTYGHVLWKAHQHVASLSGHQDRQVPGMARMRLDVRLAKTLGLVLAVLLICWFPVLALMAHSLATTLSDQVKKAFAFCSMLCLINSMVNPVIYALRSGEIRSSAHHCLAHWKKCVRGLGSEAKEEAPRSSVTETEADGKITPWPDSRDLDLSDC

Molecule `O=S(=O)(NC1CCN(c2ncnc3c2nc(-c2ccccc2Cl)n3-c2ccc(Cl)cc2)CC1)c1ccc(F)cc1F` [Compound 5, N-{1-[8-(2-Chlorophenyl)-9-(4-chlorophenyl)-9H-purin-6-yl]piperidin-4-yl}-2,4-difluorobenzene-1-sulfonamide] returned a melting point of 232 to 233 °C. Besides, in series [1], the “CB2 Ki/CB1 Ki selectivity ratio” value amounted to 26000. Further, the Ki in series [1] (setting [8]) came to 2 nM. Moreover, in series [2], the “% Permeable” value amounted to 0% and the “MDCK BBB Assay (Basolateral/Apical Peak Area Ratio) Mean” value is listed as 0.0008. For the same molecule, in series [3], the Kb stood at 2 nM. In series [4], this molecule had a Ki of 53000 nM.

`Cc1c(C(=O)NN2CCCCC2)nn(-c2ccc(Cl)cc2Cl)c1-c1ccc(Cl)cc1` [rimonabant]: the “reduction of alcoholic steatosis (AS)” value in series [5] is given as “effective in reducing AS”.

In turn, `O=C(Nc1ccc(OC(F)F)nc1)N1CCN(c2ncnc3c2nc(-c2ccccc2Cl)n3-c2ccc(Cl)cc2)CC1` [Compound 44, 4-[8-(2-Chlorophenyl)-9-(4-chlorophenyl)-9H-purin-6-yl]-N-[6-(difluoromethoxy)pyridin-3-yl]piperazine-1-carboxamide] displayed a melting point of 118 to 120 °C. In addition, the inhibition constant (Ki) in series [1] (setting [8]) is 4 nM. Further, the Kp in series [6] stood at 0.18. For the same molecule, in series [4], the inhibition constant Ki worked out at 74000 nM.

For `O=C(Nc1ccccc1F)NC1CCN(c2ncnc3c2nc(-c2ccccc2Cl)n3-c2ccc(Cl)cc2)CC1` [Compound 19, 3-{1-[8-(2-Chlorophenyl)-9-(4-chlorophenyl)-9H-purin-6-yl]piperidin-4-yl}-1-(2-fluorophenyl)urea], the “% Permeable” value in series [2] is 0%. In series [6], the Kp was found to be 0.03.

As for `FC(F)Oc1ccc(-n2c(-c3ccccc3Cl)nc3c(N4CCN(Cc5ccccc5Cl)CC4)ncnc32)cn1` [Compound 46, 8-(2-Chlorophenyl)-6-{4-[(2-chlorophenyl)methyl]piperazin-1-yl}-9-[6-(difluoromethoxy)pyridin-3-yl]-9H-purine], the melting point was 147 to 149 °C. In series [1], the Ki came to 7 nM and the “CB2 Ki/CB1 Ki selectivity ratio” value is 34. In addition, the Kb in series [3] came to 27 nM. The molecule also came in with an inhibitory constant (Ki) in series [4] of 240 nM.

For the molecule `Clc1ccc(-n2c(-c3ccccc3Cl)nc3c(N4CCN(Cc5cccc(Cl)c5)CC4)ncnc32)cc1` [Compound 99, 6-[4-(3-Chlorobenzyl)piperazin-1-yl]-8-(2-chlorophenyl)-9-(4-chlorophenyl)-9H-purine], the Kp in series [6] is 0.09.

For the molecule `Clc1ccc(-n2c(-c3ccccc3Cl)nc3c(N4CCN(Cc5ccccc5Cl)CC4)ncnc32)cc1` [Compound 98, 6-[4-(2-Chlorobenzyl)piperazin-1-yl]-8-(2-chlorophenyl)-9-(4-chlorophenyl)-9H-purine], the Kp in series [6] stood at 0.06. For the same molecule, in series [7] (ethanol diet-fed mice, 1.25 mg/kg twice daily by oral gavage, two weeks, vs ethanol+vehicle, 1.25 mg/kg), the “hepatic lipid accumulation / liver steatosis (Oil Red O lipid droplets)” value is “significantly reduced hepatic lipid accumulation; also recorded: statistically significant reduction of liver steatosis”. In addition, the “disease progression/development in a mouse model of AS” value in series [7] (mouse model of alcoholic steatosis) is on record as “block disease progression/development”.

For the molecule `N=C(NC1CCN(c2ncnc3c2nc(-c2ccccc2Cl)n3-c2ccc(Cl)cc2)CC1)c1ccc(F)cc1` [Compound 26, N-{1-[8-(2-chlorophenyl)-9-(4-chlorophenyl)-9H-purin-6-yl]piperidin-4-yl}-4-fluorobenzenecarboximidamide], in series [1], the Ki turned out to be 520 nM and the “CB2 Ki/CB1 Ki selectivity ratio” value is >11. In series [2], the “% Permeable” value was 0% and the “MDCK BBB Assay (Basolateral/Apical Peak Area Ratio) Mean” value amounted to 0.0019. Besides, the Kp in series [6] came out at 0.16. The Kb in series [3] came out at 44 nM. In series [4], the Ki is > 6000 nM.

`Clc1ccc(-n2c(-c3ccccc3Cl)nc3c(N4CCN(c5ccc(OCc6ccccc6)cc5)CC4)ncnc32)cc1` [Compound 65, 6-{4-[4-(Benzyloxy)phenyl]piperazin-1-yl}-8-(2-chlorophenyl)-9-(4-chlorophenyl)-9H-purine] registered a Ki in series [1] of 4.7 nM. In series [2], the “% Permeable” value is reported as 8% and the “MDCK BBB Assay (Basolateral/Apical Peak Area Ratio) Mean” value is 0.082. Moreover, the Kb in series [3] was 11.6 nM. The “Binding affinity (Ki) at hCB2” value in series [4] (displacement of [3H]CP55940, CHO-K1 membranes, average of 3-6 measurements) is “inactive”.
